Measured values from PMC12833730, “Discovery of a First‐in‐Class Covalent Allosteric SHP1 Inhibitor with Immunotherapeutic Activity” (Angewandte Chemie (International Ed. in English), 2025).
Entries after “also recorded” stand apart in the source; their conditions may differ.

Test system: MC38 tumors
Experiment: MC38 tumors in nude mice
Type: in vivo
Details: 25 mg/kg
From the text: To further establish whether the inhibitory effects of M029 on tumor progression could be attributable to enhanced antitumor immune responses, we treated MC38 tumors in nude mice. […] To evaluate the importance of CD8^+ T and NK cells in M029‐induced antitumor activity, we induced CD8^+ T cell or NK cell depletion in the MC38 syngeneic model using anti‐CD8 or anti‐NK1.1 antibodies as described in Figure 6c. […] These findings are consistent with the known role of SHP1 in T cells and with our in vitro data that indicate M029 enhances T cell activation with no direct effect on tumor cells. […] These findings align with previous reports that activated CD8^+ T cells recruit NK cells to tumors through releasing cytokines and chemokines like IFN‐γ.^[ [92] ^] The observed changes in immune activity induced by M029, such as increased tumor infiltration of cytotoxic CD8^+ T cells, enhanced T cell cytotoxicity and effector function, as well as improved NK cell infiltration and activation, collectively contribute to the anticancer effects exerted by M029 treatment.
Figure 6 Cytotoxic T‐cell activity is necessary for M029 antitumor activity. […] C57BL/6 mice were injected with anti‐CD8 or anti‐NK1.1 antibodies every 3–4 days for 8 days after tumor inoculation. […]

## N#Cc1ccsc1NS(=O)(=O)c1ccc(NC(=O)CCl)cc1 [M029, 2-Chloro-N-(4-(N-(3-cyanothiophen-2-yl)sulfamoyl)phenyl)acetamide]
  MC38 tumor growth in nude mice: ineffective in inhibiting tumor growth; also recorded: no significant
